Measured values as given in patent US8974827B2, “Nanoparticles comprising a non-ionizable cellulosic polymer and an amphiphilic non-ionizable block copolymer” (Bend Research, Inc., priority 2007, dated 2015).
≈ marks a conversion by molar mass, not a printed value.

Legend:
[1] = Solubility of drug in water; type: physicochemical
Procedure: The utility of the invention increases as the water solubility of the drug decreases. […] The Tg of non-crystalline Drug 1 was determined by DSC analysis to be 55° C., while the Tm of crystalline Drug 1 was 170° C.

[2] = Free drug analysis by centrifuge filtration (30,000-dalton cutoff) and HPLC; type: physicochemical; conditions: 30,000-dalton cutoff centrifuge filter, HPLC
Procedure: The nanoparticle suspension was centrifuged for 3 minutes at 13,000 rpm using a 30,000-dalton molecular-weight cutoff centrifuge tube filter, and 50 μL of the supernatant was added to 250 μL acetonitrile. The sample was assayed by HPLC.

[3] = Log P of drug; type: physicochemical; conditions: octanol/water
Excerpt: The first property of hydrophobic drugs is that they are extremely hydrophobic. Log P, defined as the base 10 logarithm of the ratio of the drug solubility in octanol to the drug solubility in water, is a widely accepted measure of hydrophobicity. By “extremely hydrophobic” is meant that the Log P value of the drug is at least 4.0, preferably at least 4.5, and most preferably at least 5.0. Log P may be measured experimentally or calculated using methods known in the art. When using a calculated value for Log P, the highest value calculated using any generally accepted method for calculating Log P is used. Calculated Log P values are often referred to by the calculation method, such as Clog P, Alog P, and Mlog P. The Log P may also be estimated using fragmentation methods, such as Crippen's fragmentation method (27 J. Chem. Inf. Comput. Sci. 21 (1987)); Viswanadhan's fragmentation method (29 J. Chem. Inf. Comput. Sci. 163 (1989)); or Broto's fragmentation method (19 Eur. J. Med. Chem.-Chim. Theor. 71 (1984).

[4] = Solubility in model fasted duodenal (MFD) solution; type: physicochemical; conditions: fassgf or other biorelevant, PBS containing 7.3 mM sodium taurocholic acid and 1.4 mM POPC
[5] = for Observations: pH 6.5
Procedure: An appropriate PBS solution is an aqueous solution comprising 20 mM sodium phosphate (Na2HPO4), 47 mM potassium phosphate (KH2PO4), 87 mM NaCl, and 0.2 mM KCl, adjusted to pH 6.5 with NaOH. A test to determine whether the cellulosic polymer is insoluble may be performed as follows. The cellulosic polymer is initially present in bulk powder form with average particle sizes of greater than about 1 micron. The polymer alone is administered at a concentration of 0.2 mg/mL to the PBS solution and stirred for approximately 1 hour at room temperature. Next, a nylon 0.45 μm filter is weighed, and the solution is filtered. The filter is dried overnight at 40° C., and weighed the following morning.
First, 0.2 mg/mL of the polymer was added to a PBS solution consisting of 20 mM Na2HPO4, 47 mM KH2PO4, 87 mM NaCl, and 0.2 mM KCl, adjusted to pH 6.5 with NaOH. The polymer was stirred in the PBS solution for approximately 1 hour at room temperature. Next, the polymer solution was filtered through a nylon 0.45 μm filter that was weighed dry prior to filtration. The filter was dried overnight at 40° C., and weighed the following morning. The amount of soluble polymer was calculated from the amount of polymer added to form the polymer solution minus the amount of polymer remaining on the filter.

Row | Compound | solubility [1] | Observations [5] | Amount Soluble at pH 6.5 [5] | other results
1 | Cc1onc(-c2ccccc2)c1-c1ccc(S(N)(=O)=O)cc1 [Drug 1, 4-(5-methyl-3-phenyl-4-isoxazolyl)benzenesulfonamide] | ~10 µg/mL (≈ 31.8 µM) |  |  | Free Drug [2]: 11 µg/mL; logP [3]: ~3
2 | CC[C@@H]1C[C@H](N(Cc2cc(C(F)(F)F)cc(C(F)(F)F)c2)C(C)=O)c2cc(C(F)(F)F)ccc2N1C(=O)OC(C)C [Drug 2, [2R,4S] 4-[acetyl-(3,5-bis-trifluoromethyl-benzyl)-amino]-2-ethyl-6-trifluoromethyl-3,4-dihydro-2H-quinoline-1-carboxylic acid isopropyl ester] | < 1 µg/mL |  |  | 
3 | Cc1ccc(-c2cc(C(F)(F)F)nn2-c2ccc(S(N)(=O)=O)cc2)cc1 [Drug 3, celecoxib] |  |  |  | solubility [4]: ~40 µg/mL (≈ 105 µM)
4 | Polyethylene glycol 8000 [PEG 8000] |  | Stabilizer dissolved |  | Soluble at pH 6.5 [5]: 0.2 mg/mL
5 | ethylcellulose |  | Fine particle suspension | <0.001 mg/mL | 
6 | poly(DL-lactide-co-glycolide 50:50) [PLGA] |  | Fine particle suspension | 0.02 mg/mL | 
